Three compounds from patent publication US8828908B2, “Herbicidally active bicyclic 1,3-dione compounds” (Syngenta Limited, priority 2007, dated 2014) can be followed below.

What all share (type): in vivo
The test system of test [1] is Solanum nigrum (SOLNI). The experiment in a line: Example A pre-emergence herbicidal glasshouse test. As to conditions: Rate 250 g/ha, evaluated after 13 days, 100=total damage to plant, 0=no damage to plant. In short, it runs like this:
(§1)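 Potted plants grown from seed in a controlled glasshouse (24 °C day, 16 °C night; 14 h light; 65% humidity) were sprayed either pre-emergence, one day after sowing, or post-emergence after 8 days. Vehicle: acetone/water (50:50), 0.5% Tween 20. Scoring after 13 days, 0 = undamaged.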

For test [2], the system named is Setaria faberi (SETFA). Description: Example A pre-emergence herbicidal glasshouse test. As to conditions: 312 h, Rate 250 g/ha, evaluated after 13 days, 100=total damage to plant, 0=no damage to plant. An outline of the steps: as §1
In test [3] the test system is Alopecurus myosuroides (ALOMY). The experiment in a line: Example A pre-emergence herbicidal glasshouse test. As to conditions: 312 h, Rate 250 g/ha, evaluated after 13 days, 100=total damage to plant, 0=no damage to plant. In short, it runs like this:
as §1

Test [4] deals with Amaranthus retroflexus (AMARE). Description: Example A pre-emergence herbicidal glasshouse test. As to conditions: 312 h, Rate 250 g/ha, evaluated after 13 days, 100=total damage to plant, 0=no damage to plant. In short, it runs like this:
as §1

The subject of test [5] is Avena fatua (AVEFA). Description: Example A pre-emergence herbicidal glasshouse test. The note with it: 312 h, Rate 250 g/ha, evaluated after 13 days, 100=total damage to plant, 0=no damage to plant. An outline of the steps:
as §1

The subject of test [6] is Echinochloa crus-galli (ECHCG). Description: Example A pre-emergence herbicidal glasshouse test. The note with it: 312 h, Rate 250 g/ha, evaluated after 13 days, 100=total damage to plant, 0=no damage to plant. In short, it runs like this:
as §1

Test [7] deals with Solanum nigrum (SOLNI). Description: Example A post-emergence herbicidal glasshouse test. The note with it: 250 g/ha, evaluated after 13 days, 100=total damage to plant, 0=no damage. In short, it runs like this:
as §1

For test [8], the system named is Setaria faberi (SETFA). The description is as above. The note with it: 312 h, evaluated after 13 days, 100=total damage to plant, 0=no damage. In short, it runs like this:
as §1

Test [9] concerns Alopecurus myosuroides (ALOMY). The description is as above. The note with it: 312 h, evaluated after 13 days, 100=total damage to plant, 0=no damage. An outline of the steps:
as §1

For test [10], the system named is Amaranthus retroflexus (AMARE). Described as above. The note with it: 312 h, evaluated after 13 days, 100=total damage to plant, 0=no damage. In short, it runs like this: as §1
Test [11] concerns Avena fatua (AVEFA). The test is described as above. As to conditions: 312 h, evaluated after 13 days, 100=total damage to plant, 0=no damage. An outline of the steps: as §1
The subject of test [12] is Echinochloa crus-galli (ECHCG). The description is as above. As to conditions: 312 h, evaluated after 13 days, 100=total damage to plant, 0=no damage. In short, it runs like this: as §1
Test [13] concerns Digitaria sanguinalis (DIGSA). The experiment in a line: Example B pre-emergence herbicidal greenhouse test. The note with it: 480 h, evaluated after 20 days, 100=total damage to plant, 0=no damage. An outline of the steps: (§2)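 Seeds are sown in soil-filled pots and sprayed either 1 day later (pre-emergence) or after 10 days of growth (post-emergence) with the active ingredient in an aqueous formulation containing an emulsifier, solvents and a surfactant. Injury is scored after 20 further days (pre) or 15 further days (post).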

Test [14] relates to Setaria faberi (SETFA). The experiment in a line: Example B pre-emergence herbicidal greenhouse test. The note with it: 480 h, evaluated after 20 days, 100=total damage to plant, 0=no damage. An outline of the steps: as §2
Test [15] has as its system Alopecurus myosuroides (ALOMY). The experiment in a line: Example B pre-emergence herbicidal greenhouse test. The note with it: 480 h, evaluated after 20 days, 100=total damage to plant, 0=no damage. An outline of the steps: as §2
The subject of test [16] is Lolium perenne (LOLPE). The experiment in a line: Example B pre-emergence herbicidal greenhouse test. As to conditions: 480 h, evaluated after 20 days, 100=total damage to plant, 0=no damage. An outline of the steps:
as §2

Test [17] deals with Avena fatua (AVEFA). The experiment in a line: Example B pre-emergence herbicidal greenhouse test. The note with it: 480 h, evaluated after 20 days, 100=total damage to plant, 0=no damage. An outline of the steps:
as §2

The test system of test [18] is Echinochloa crus-galli (ECHCG). Description: Example B pre-emergence herbicidal greenhouse test. The note with it: 480 h, evaluated after 20 days, 100=total damage to plant, 0=no damage. An outline of the steps:
as §2

Test [19] has as its system Digitaria sanguinalis (DIGSA). Description: Example B post-emergence herbicidal greenhouse test. The note with it: 360 h, evaluated after 15 days, 100=total damage to plant, 0=no damage. In short, it runs like this: as §2
Test [20] concerns Setaria faberi (SETFA). The description is as above. The note with it: 360 h, evaluated after 15 days, 100=total damage to plant, 0=no damage. In short, it runs like this: as §2
The subject of test [21] is Alopecurus myosuroides (ALOMY). The test is described as above. The note with it: 360 h, evaluated after 15 days, 100=total damage to plant, 0=no damage. An outline of the steps: as §2
For test [22], the system named is Lolium perenne (LOLPE). The description is as above. The note with it: 360 h, evaluated after 15 days, 100=total damage to plant, 0=no damage. An outline of the steps:
as §2

The test system of test [23] is Avena fatua (AVEFA). Described as above. The note with it: 360 h, evaluated after 15 days, 100=total damage to plant, 0=no damage. An outline of the steps:
as §2

The test system of test [24] is Echinochloa crus-galli (ECHCG). The test is described as above. The note with it: 360 h, evaluated after 15 days, 100=total damage to plant, 0=no damage. An outline of the steps: as §2

The term pest or weed control denotes the degree to which the test organism was suppressed or injured, in per cent. As to `Cc1ccc(-c2ccc(F)cc2)cc1C1=C(O)[C@H]2CC[C@H](C2)C1=O` (single isomer, unassigned) [Compound T17], the “SOLNI damage to plant” value with Solanum nigrum (SOLNI) [1] and in the test with Solanum nigrum (SOLNI) [7] was 0 in each case. The pest or weed control at 250 g/ha with Setaria faberi (SETFA) [2] was determined as 80%; in test [3], 0%; in test [4] it was 0%; in the test with Avena fatua (AVEFA) [5], 10%; in test [6], 50%; in the test with Setaria faberi (SETFA) [8], 80%. The pest or weed control at 250 g/ha in test [9] was 10%; in [10], 0%; with Avena fatua (AVEFA) [11], 0%; in test [12] it was 70%.

`Cc1ccc(-c2ccc(Cl)cc2)cc1C1=C(O)[C@H]2CC[C@H](C2)C1=O` [Compound T1, 3-(4′-chloro-4-methylbiphen-3-yl)bicyclo[3.2.1]octane-2,4-dione]: the pest or weed control at 250 g/ha was 50% in test [13]; 100% with Setaria faberi (SETFA) [14]; 80% in test [15]; 100% in the test on Lolium perenne (LOLPE) [16]; 30% in the test with Avena fatua (AVEFA) [17]; 100% in [18]. Moreover, the pest or weed control at 250 g/ha with Setaria faberi (SETFA) [2] turned out to be 90%; in test [3] it was 50%; in test [4], 0%; in the test on Avena fatua (AVEFA) [5] it was 40%; in test [6] it was 90%; in the test on Setaria faberi (SETFA) [8] it was 100%. The pest or weed control at 250 g/ha in test [9] was determined as 80%; in [10], 50%; with Avena fatua (AVEFA) [11], 90%; in [12] it was 100%. Besides, the “SOLNI damage to plant” value in the test on Solanum nigrum (SOLNI) [1] stood at 0; in the test with Solanum nigrum (SOLNI) [7], 20. The pest or weed control at 125 g/ha in test [19] was 90%; with Setaria faberi (SETFA) [20], 90%; in test [21] it was 50%; with Lolium perenne (LOLPE) [22], 50%; with Avena fatua (AVEFA) [23] it was 30%; in test [24] it was 90%.

For the compound `CCc1ccc(-c2ccc(Cl)cc2)cc1C1=C(O)[C@H]2CC[C@H](C2)C1=O` [Compound T4, 3-(4′-chloro-4-ethylbiphen-3-yl)bicyclo[3.2.1]octane-2,4-dione], the pest or weed control at 250 g/ha came to 100% in test [13]; 100% with Setaria faberi (SETFA) [14]; 100% in test [15]; 100% in the test with Lolium perenne (LOLPE) [16]; 80% with Avena fatua (AVEFA) [17]; 100% in test [18]. For the same compound, the pest or weed control at 250 g/ha was 90% in the test with Setaria faberi (SETFA) [2]; 50% in test [3]; 0% in test [4]; 50% with Avena fatua (AVEFA) [5]; 100% in test [6]; 100% in the test on Setaria faberi (SETFA) [8]. The pest or weed control at 250 g/ha in test [9] worked out at 90%; in test [10], 0%; with Avena fatua (AVEFA) [11], 100%; in [12] it was 100%. The “SOLNI damage to plant” value with Solanum nigrum (SOLNI) [1] and in the test with Solanum nigrum (SOLNI) [7] was 0 each time. The pest or weed control at 125 g/ha in test [19] was 100%; with Setaria faberi (SETFA) [20], 100%; in [21], 80%; in the test with Lolium perenne (LOLPE) [22] it was 100%; with Avena fatua (AVEFA) [23] it was 100%; in [24], 100%.
